Experimental data as given in patent US10822376B2, “Biologically active peptides” (Baxalta Incorporated, priority 2008, dated 2020).
Where a SMILES comes first, the peptide text is derived from it. Bridges are numbered along the chain shown (N, C = ends). Roman numbers before positions name the chains, in order. [ ]: non-standard residue; d: D form.

Columns and labels:
[1] = tested on: FVIII-inhibited human normal plasma; test: Defined Fibrin Deposition Assay (clotting time); assay type: biochemical
Procedure: Another suitable assay to determine procoagulant activity, and particularly FVIII equivalent activity or FVIII inhibitor bypassing activity, is the Defined Fibrin Deposition Assay as described below. […] This assay is particularly useful for determining coagulation FVIII activity because it is conducted in the presence of FVIII-depleted or inhibited plasma.
The Defined Fibrin Deposition Assay is performed as follows. FVIII activity of human citrated plasma (Baxter AG) is first inhibited by incubating (2 hours, 37° C.) 100 μl of human normal plasma with 25 μl heat inactivated anti-human FVIII plasma (300 BU/ml, 6 hours incubated at 56° C.) raised in goat. For each sample to be tested, 125 μl of this FVIII-inhibited human normal plasma is transferred to a pre-warmed cuvette and a 75 μl dilution of a test compound or FEIBA reference standard (Baxter AG) is added. The dilutions of test compound or FEIBA reference standard contain 50 mM imidazole, 100 mM NaCl and 10 mg/ml human serum albumin (Sigma) pH 7.4. As a trigger and for providing procoagulant surfaces 100 μl of a mix of human factor XIa (3.13 nM, Enzyme Research Laboratories) and phospholipid (PL) vesicles (Phosphatidylcholine/Phosphatidylserine 60%/40%, 30 μM; Avanti Polar Lipids) in 50 mM Imidazole, 100 mM NaCl, 10 mg/ml human serum albumin (Sigma) pH 7.4 is included. After incubating for three minutes at 37° C. the coagulation reaction is started by adding 100 μl of 25 mM CaCl2. Clot formation is monitored by a coagulometer (KC10A, Amelung, Germany). In brief, each cuvette rotates slowly above the magnetic detection device and contains a small magnetic metallic ball. Whilst the plasma components remain in solution, the ball sits at the bottom of the cuvette. Over time, a clot begins to form, such that the ball starts to rotate with the developing clot in the rotating cuvette. The “clotting time” is recorded and is defined as the time from addition of the CaCl2) to the time that the developing clot begins to rotate the metallic ball. A standard curve for FEIBA reference standard dilutions is calculated by linear regression of logarithmic FEIBA concentrations (x-axis) against the clotting time (y-axis). Based on the clotting time of each compound concentration FEIBA equivalent activities are calculated according to this standard curve.
Thus, where a concentration of 100 μM is given, the actual concentration in the final assay volume in 25 μM.
Various peptides were tested for the ability to stimulate fibrin deposition in the Defined Fibrin Deposition Assay as described in the specific description.

[2] = tested on: human FVIII inhibited plasma; test: Defined Intrinsic Thrombin Generation Assay (DITGA, triggered by FXIa and phospholipids); assay type: biochemical; settings: for Activity in the Defined Intrinsic Thrombin Generation Assay: summary
Text: (§1) The intrinsic pathway of thrombin generation may be assayed in a thrombin generation assay by including FXIa and phospholipids. In such an assay, which is similar to an activated partial thromboplastin time (aPTT) test, thrombin generation is solely directed through the intrinsic pathway, and is FVIII dependent. A suitable assay is the Defined Intrinsic Thrombin Generation Assay described below. Alternatively, by employing low concentrations of TF and phospholipids instead of FXIa and phospholipids, thrombin is generated by both the extrinsic (tissue factor) and the intrinsic pathways. This form of the thrombin generation assay is the more physiologic one, as both thrombin generation pathways are involved; it is partially FVIII dependent. A suitable assay is the Defined Dual-Pathway Thrombin Generation Assay.
The Defined Intrinsic Thrombin Generation Assay is performed as follows. FVIII activity of human plasma is inhibited by incubating (2 hours, 37° C.) 40 μl of human normal plasma with 10 μl heat inactivated anti-human FVIII plasma raised in goat (600 BU/ml, 6 hours incubated at 56° C.). […] Instead of FVIII-inhibited plasma, FVIII inhibitor patient plasma or several depleted plasmas can be used. The micro-plate is immediately put into a GENios Plus (Tecan) or Safire 2 (Tecan) fluorescence reader and the fluorescence signal (ex 340 nm/em 440 nm) is followed kinetically by reading the plate every 21 seconds.
For calculation of activity equivalent units experiments are performed with dilutions of Factor Eight Inhibitor Bypassing Agent (FEIBA, Baxter AG), Immunate (human FVIII, purified plasma derived) reference standard (Baxter AG) or Recombinate standard (human FVIII, purified recombinant, Baxter AG). A linear fit of the logarithm of FEIBA (FVIII) concentration plotted against thrombin generation time at peak thrombin results in a standard curve. With this curve FEIBA (FVIII) equivalent activity is calculated for a defined peptide concentration. […] Thus, where a concentration of 100 μM is given, the actual concentration in the final assay volume in 40 μM.
Compounds were screened using the “Defined intrinsic thrombin generation assay” in which thrombin generation was quantified in vitro in FVIII-inhibited human plasma in the presence of Factor XIa and phospholipid vesicles. Further compounds were screened in the above assay, and in the “Defined dual-pathway thrombin generation assay” using tissue factor and phospholipids instead of Factor XIa and phospholipids, as described in the specific description.
Various concentrations of each peptide were tested in the defined intrinsic thrombin generation assay using human FVIII inhibited plasma.

FVIII deficient plasma = test: Defined Dual-Pathway Thrombin Generation Assay (DDPTGA, reagent C high), FVIII deficient plasma; assay type: biochemical, human; settings: for Effect on both peak time and peak IIa of thrombin generation: DDPTGA, comment on Table 10; for Peak IIa FVIII EU / Peak Time FVIII EU: FVIII deficient plasma
Text: as §1
(§2) Preferably, Reagent C high is used.
(§3) Tissue factor dependency of peak thrombin generation and thrombin peak time was characterised in a composition containing a fixed concentration of phospholipid (namely 3.2 μM). Phospholipid dependency was characterised in a composition containing a fixed concentration of tissue factor (namely 7.2 μM). Peak time (time to peak thrombin generation) was dependent on the concentration of phospholipid or tissue factor. The final version of this assay is as described in the specific description, in which 10 μl reagent C high containing (32 μM phospholipid and 71.6 μM tissue factor) is used in a total volume of 100 μl.
(§4) Further studies were conducted using 3.2 μM phospholipid and 7.2 μM tissue factor in FVIII deficient or inhibited plasma, to characterise the effect on peak thrombin generation and thrombin peak time of various coagulation factor preparations. These studies provided a basis from which to compare the efficacy of the compounds in the assay. Briefly, rFVIII (Recombinate® FVIII from Baxter) was tested at 0, 5, 10, 20, 40 and 80 mU/ml in FVIII deficient plasma. FEIBA was tested at 0, 8, 16, 31, 63 and 125 mU/ml in FVIII inhibited plasma. FVIIa was tested at 0, 0.1, 0.4, 1.6, 6.3 and 25 nM in FVIII inhibited plasma. […] Peak thrombin increased and both the lag time and the thrombin peak time decrease.

FVIII inhibited plasma = test: Defined Dual-Pathway Thrombin Generation Assay (DDPTGA, reagent C high), FVIII inhibited plasma; assay type: biochemical, human; settings: for Peak IIa FEIBA EU / Peak IIa FVIIa EU / Peak Time FEIBA EU / Peak Time FVIIa EU: FVIII inhibited plasma; for Activity in the Defined Dual-Pathway Thrombin Generation Assay: summary, FVIII inhibited or deficient plasma
Text: as §1, §2, §3, §4

Compound | Thrombin peak time given as FEIBA equivalent activity ([2]; peptide 12.5 μM) [mU/ml] | Thrombin peak time given as FEIBA equivalent activity ([2]; peptide 25 μM) [mU/ml] | Thrombin peak time given as FEIBA equivalent activity ([2]; peptide 50 μM) [mU/ml] | Thrombin peak time given as FEIBA equivalent activity ([2]; peptide 100 μM) [mU/ml] | Activity in the Defined Intrinsic Thrombin Generation Assay [2] | Effect on both peak time and peak IIa of thrombin generation (FVIII deficient plasma) | Peak IIa FVIII EU (FVIII deficient plasma; peptide 100 μM) | Peak Time FVIII EU (FVIII deficient plasma; peptide 100 μM) | Peak IIa FEIBA EU (FVIII inhibited plasma; peptide 100 μM) | Peak IIa FVIIa EU (FVIII inhibited plasma; peptide 100 μM) | Peak Time FEIBA EU (FVIII inhibited plasma; peptide 100 μM) | Peak Time FVIIa EU (FVIII inhibited plasma; peptide 100 μM) | Activity in the Defined Dual-Pathway Thrombin Generation Assay (FVIII inhibited plasma) | Peak IIa FVIII EU (FVIII deficient plasma; peptide 50 μM) | Peak Time FVIII EU (FVIII deficient plasma; peptide 50 μM) | Peak IIa FEIBA EU (FVIII inhibited plasma; peptide 50 μM) | Peak IIa FVIIa EU (FVIII inhibited plasma; peptide 50 μM) | Peak Time FEIBA EU (FVIII inhibited plasma; peptide 50 μM) | Peak Time FVIIa EU (FVIII inhibited plasma; peptide 50 μM) | also measured
CC[C@@H](C)[C@H]1NC(=O)[C@H](NC(C)=O)CSSC[C@H](C(=O)N[C@H](Cc2ccc(O)cc2)C(=O)N[C@H](CCC(=O)O)C(N)=O)NC(=O)[C@@H](CC(=O)O)NC(=O)[C@@H](Cc2ccc(O)cc2)NC(=O)[C@@H](Cc2c[nH]c3ccccc23)NC(=O)[C@@H](Cc2ccccc2)NC(=O)[C@@H](CCSC)NC1=O [Peptide B01, Ac-(cimfwydc)-ye-NH2] (Ac-[dC][dI][dM][dF][dW][dY][dD][dC][dY][dE]-NH2; disulfide 1-8) | 35 | 62 | 89 | 103 | possess activity |  |  |  |  |  |  |  |  |  |  |  |  |  |  | FEIBA EU (from clotting time) ([1]; compound 25 μM): 31 mU/ml; FEIBA EU (from clotting time) ([1]; compound 50 μM): 47 mU/ml; FEIBA EU (from clotting time) ([1]; compound 100 μM): 94 mU/ml; Activity in the Defined Fibrin Deposition Assay ([1]; summary): possess activity
CC[C@@H](C)[C@@H](NC(=O)[C@@H](CSSC[C@@H](NC(C)=O)C(=O)N[C@@H](C(=O)N[C@H](CCSC)C(=O)N[C@H](Cc1ccccc1)C(=O)N[C@H](Cc1c[nH]c2ccccc12)C(=O)N[C@H](Cc1ccc(O)cc1)C(=O)N[C@H](CC(=O)O)C(=O)N[C@H](CCC(=O)O)C(=O)N[C@H](Cc1ccc(O)cc1)C(=O)N[C@H](CCC(=O)O)C(N)=O)[C@H](C)CC)NC(C)=O)C(=O)N[C@H](CCSC)C(=O)N[C@H](Cc1ccccc1)C(=O)N[C@H](Cc1c[nH]c2ccccc12)C(=O)N[C@H](Cc1ccc(O)cc1)C(=O)N[C@H](CC(=O)O)C(=O)N[C@H](CCC(=O)O)C(=O)N[C@H](Cc1ccc(O)cc1)C(=O)N[C@H](CCC(=O)O)C(N)=O [Peptide B04, Disulphide-Dimer(Ac-cimfwydeye-NH2)2] (I: Ac-[dC][dI][dM][dF][dW][dY][dD][dE][dY][dE]-NH2 / II: Ac-[dC][dI][dM][dF][dW][dY][dD][dE][dY][dE]-NH2; disulfide I:1-II:1) |  |  |  |  |  | positively affected | 5.0 mU/ml | 1.6 mU/ml | 13.3 mU/ml | 0.7 nM | BLS (BLS = below lowest standard.) | BLS (BLS = below lowest standard.) | possess activity |  |  |  |  |  |  | Peak IIa FVIII EU (FVIII deficient plasma; peptide 16 μM): 4.4 mU/ml; Peak Time FVIII EU (FVIII deficient plasma; peptide 16 μM): 4.1 mU/ml; Peak IIa FVIII EU (FVIII deficient plasma; peptide 40 μM): 4.8 mU/ml; Peak Time FVIII EU (FVIII deficient plasma; peptide 40 μM): 7.3 mU/ml; Peak IIa FEIBA EU (FVIII inhibited plasma; peptide 16 μM): BLS (BLS = below lowest standard.); Peak IIa FVIIa EU (FVIII inhibited plasma; peptide 16 μM): 0.1 nM; Peak Time FEIBA EU (FVIII inhibited plasma; peptide 16 μM): BLS (BLS = below lowest standard.); Peak Time FVIIa EU (FVIII inhibited plasma; peptide 16 μM): BLS (BLS = below lowest standard.); Peak IIa FEIBA EU (FVIII inhibited plasma; peptide 40 μM): 12.8 mU/ml; Peak IIa FVIIa EU (FVIII inhibited plasma; peptide 40 μM): 0.6 nM; Peak Time FEIBA EU (FVIII inhibited plasma; peptide 40 μM): BLS (BLS = below lowest standard.); Peak Time FVIIa EU (FVIII inhibited plasma; peptide 40 μM): BLS (BLS = below lowest standard.)
Ac-WDLYFEISW-ttds-E [Peptide A15] |  |  |  |  |  | positively affected | 5.0 mU/ml | 12.7 mU/ml | 13.6 mU/ml | 0.7 nM | BLS (BLS = below lowest standard.) | BLS (BLS = below lowest standard.) | possess activity | 4.3 mU/ml | 14.4 mU/ml | BLS (BLS = below lowest standard.) | BLS (BLS = below lowest standard.) | BLS (BLS = below lowest standard.) | BLS (BLS = below lowest standard.) | 
Ac-WDLYFEIVW-ttds-K [Peptide A20] | 501 | 597 | 873 | 1101 | possess activity |  |  |  |  |  |  |  |  |  |  |  |  |  |  | Thrombin peak time given as FEIBA equivalent activity ([2]; peptide 6.25 μM): 391 mU/ml
Ac-WSLYFEIVWE [Peptide A14] |  |  |  |  |  |  | BLS (BLS = below lowest standard.) | BLS (BLS = below lowest standard.) | BLS (BLS = below lowest standard.) | BLS (BLS = below lowest standard.) | BLS (BLS = below lowest standard.) | BLS (BLS = below lowest standard.) |  | BLS (BLS = below lowest standard.) | BLS (BLS = below lowest standard.) | BLS (BLS = below lowest standard.) | BLS (BLS = below lowest standard.) | BLS (BLS = below lowest standard.) | BLS (BLS = below lowest standard.) | 
PEG5000-ERMEFDVWDLYFEIVW-NH2 [Peptide A18] |  |  |  |  |  |  | BLS (BLS = below lowest standard.) | 17.1 mU/ml | BLS (BLS = below lowest standard.) | BLS (BLS = below lowest standard.) | BLS (BLS = below lowest standard.) | BLS (BLS = below lowest standard.) | possess activity | BLS (BLS = below lowest standard.) | BLS (BLS = below lowest standard.) | BLS (BLS = below lowest standard.) | BLS (BLS = below lowest standard.) | BLS (BLS = below lowest standard.) | BLS (BLS = below lowest standard.) | 
